Our source for the EC50 and IC50 values is ChEMBL document CHEMBL6103546, “TRPM8 and TRPA1 ideal targets for treating cold-induced pain” (Eur J Med Chem, 2025).

Molecules are shown by their SMILES.

Experiment [1] has as its target T1, Transient receptor potential cation channel subfamily A member 1 (Homo sapiens, UniProt O75762). Briefly: Antagonist activity at TRPA1 (unknown origin) transfected in HEK293F cells assessed as reduction in intracellular Ca2+ by fluorescence based assay. It is filed as cell-based.
In experiment [2] the target is T1, Transient receptor potential cation channel subfamily A member 1. Briefly: […] at human TRPA1 expressed in HEK293T cells assessed as inhibition of AITC-induced current by whole cell patch clamp analysis. It is filed as cell-based. (In general: Patch clamp records ionic current or voltage across a cell membrane.)
Experiment [3] shares this target. Briefly: Antagonist activity at TRPA1 (unknown origin) expressed in HEK293 cells assessed as inhibition of AITC-induced intracellular Ca2+ flux by fluorescence dye based assay. In kind it is cell-based.
Experiment [4] shares this target. The experiment can be described thus: Antagonist activity at human TRPA1 expressed in CHO cells assessed as inhibition of AITC-induced intracellular Ca2+ flux by fluorescence dye based assay. In kind it is cell-based. In general terms: Calcium assays in cells follow changes in intracellular calcium, usually with a dye or a luminescent sensor.
Experiment [5] shares this target. The experiment can be described thus: Antagonist activity at recombinant TRPA1 (unknown origin) expressed in T-REx-293 cells assessed as inhibition of AITC-induced intracellular Ca2+ flux by patch clamp assay. It is filed as cell-based.
The target of experiment [6] is T2, Transient receptor potential cation channel subfamily M member 8 (Homo sapiens, UniProt Q7Z2W7). Briefly: Antagonist activity at human recombinant TRPM8 stably transfected in HEK293 cells assessed as inhibition of intracellular Ca2+ flux incubated for 60 mins by Fluo-4 dye based fluorescence assay. It is filed as cell-based.
T2 sequence (Q7Z2W7 whole entry): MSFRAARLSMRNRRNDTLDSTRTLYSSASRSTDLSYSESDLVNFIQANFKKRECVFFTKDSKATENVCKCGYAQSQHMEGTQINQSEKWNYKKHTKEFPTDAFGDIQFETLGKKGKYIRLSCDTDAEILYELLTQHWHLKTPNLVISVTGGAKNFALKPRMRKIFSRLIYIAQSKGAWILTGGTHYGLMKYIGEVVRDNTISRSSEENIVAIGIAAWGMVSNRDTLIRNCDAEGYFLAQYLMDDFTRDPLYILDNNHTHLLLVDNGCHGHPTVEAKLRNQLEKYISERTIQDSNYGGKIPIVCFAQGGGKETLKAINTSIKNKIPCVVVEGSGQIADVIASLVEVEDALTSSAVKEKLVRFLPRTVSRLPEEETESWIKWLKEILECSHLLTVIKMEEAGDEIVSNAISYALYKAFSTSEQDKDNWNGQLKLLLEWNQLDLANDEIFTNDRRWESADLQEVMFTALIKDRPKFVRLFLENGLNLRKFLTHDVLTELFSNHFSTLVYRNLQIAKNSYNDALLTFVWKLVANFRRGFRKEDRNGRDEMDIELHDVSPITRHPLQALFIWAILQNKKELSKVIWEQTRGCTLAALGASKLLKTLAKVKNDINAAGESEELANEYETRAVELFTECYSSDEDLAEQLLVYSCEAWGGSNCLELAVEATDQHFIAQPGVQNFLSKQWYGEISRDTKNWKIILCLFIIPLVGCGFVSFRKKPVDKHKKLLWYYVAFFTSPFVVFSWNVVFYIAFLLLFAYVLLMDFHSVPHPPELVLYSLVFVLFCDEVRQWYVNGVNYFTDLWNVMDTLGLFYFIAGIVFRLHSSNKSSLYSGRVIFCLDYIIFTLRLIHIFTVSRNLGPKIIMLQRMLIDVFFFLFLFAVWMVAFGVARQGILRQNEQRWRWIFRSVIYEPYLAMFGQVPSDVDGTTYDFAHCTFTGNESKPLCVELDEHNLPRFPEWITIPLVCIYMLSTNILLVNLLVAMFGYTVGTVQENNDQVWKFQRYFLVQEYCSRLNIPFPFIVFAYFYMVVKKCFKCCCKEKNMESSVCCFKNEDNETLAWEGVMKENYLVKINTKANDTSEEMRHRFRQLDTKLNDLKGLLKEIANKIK
The target of experiment [7] is T2, Transient receptor potential cation channel subfamily M member 8. Briefly: Antagonist activity at TRPM8 (unknown origin).
For experiment [8] the target is unchanged. The experiment can be described thus: Antagonist activity at human TRPM8 expressed in HEK293 cells. In kind it is cell-based.
For experiment [9] the target is unchanged. The experiment can be described thus: Antagonist activity at human TRPM8 transfected in HEK293T cells assessed as inhibition of intracellular Ca2+ level by Fluo-4 dye based fluorescence assay. It is filed as cell-based.
For experiment [10], the target named is Transient receptor potential cation channel subfamily M member 8 (Rattus norvegicus, UniProt Q8R455). The experiment can be described thus: Antagonist activity at rat TRPM8 transfected in HEK293T cells assessed as reduction in intracellular Ca2+ level Fluo-4 dye based fluorescence assay. In kind it is cell-based.
Sequence of Transient receptor potential cation channel subfamily M member 8 (Rattus norvegicus, UniProt Q8R455) (Q8R455 whole entry): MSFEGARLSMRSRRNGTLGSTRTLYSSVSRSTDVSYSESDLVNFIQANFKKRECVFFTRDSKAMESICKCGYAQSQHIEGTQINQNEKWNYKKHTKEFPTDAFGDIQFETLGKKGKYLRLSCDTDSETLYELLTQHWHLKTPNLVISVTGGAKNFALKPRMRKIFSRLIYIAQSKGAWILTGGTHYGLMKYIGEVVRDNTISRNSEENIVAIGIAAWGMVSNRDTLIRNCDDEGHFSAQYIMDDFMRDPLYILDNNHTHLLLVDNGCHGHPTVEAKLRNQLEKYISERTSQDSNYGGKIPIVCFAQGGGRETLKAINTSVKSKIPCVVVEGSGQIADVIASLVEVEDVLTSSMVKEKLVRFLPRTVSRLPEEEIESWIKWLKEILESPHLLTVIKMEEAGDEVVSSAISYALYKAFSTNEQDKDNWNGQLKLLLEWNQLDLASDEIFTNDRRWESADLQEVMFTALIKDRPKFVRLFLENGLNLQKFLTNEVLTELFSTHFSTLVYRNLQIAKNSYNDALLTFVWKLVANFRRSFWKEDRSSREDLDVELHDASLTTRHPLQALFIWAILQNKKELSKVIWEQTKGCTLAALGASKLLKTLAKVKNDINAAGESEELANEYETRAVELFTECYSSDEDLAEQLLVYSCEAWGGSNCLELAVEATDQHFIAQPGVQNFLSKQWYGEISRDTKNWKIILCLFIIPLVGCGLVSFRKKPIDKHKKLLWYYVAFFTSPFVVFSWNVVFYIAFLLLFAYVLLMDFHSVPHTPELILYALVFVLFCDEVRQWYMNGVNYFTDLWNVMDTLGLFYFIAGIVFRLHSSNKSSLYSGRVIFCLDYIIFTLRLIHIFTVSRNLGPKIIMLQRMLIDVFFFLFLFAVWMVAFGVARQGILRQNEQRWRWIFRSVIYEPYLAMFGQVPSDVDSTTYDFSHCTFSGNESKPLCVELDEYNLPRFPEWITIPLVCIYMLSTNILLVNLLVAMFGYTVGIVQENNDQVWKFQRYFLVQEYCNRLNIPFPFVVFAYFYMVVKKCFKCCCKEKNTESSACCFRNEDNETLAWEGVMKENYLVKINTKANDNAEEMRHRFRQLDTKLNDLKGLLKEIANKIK
The target of experiment [11] is T2, Transient receptor potential cation channel subfamily M member 8. Briefly: Agonist activity at TRPM8 (unknown origin).
The target is the same in experiment [12]. Briefly: Antagonist activity at TRPM8 (unknown origin) in HEK293T cells. In kind it is cell-based.

T1 sequence (O75762 whole entry): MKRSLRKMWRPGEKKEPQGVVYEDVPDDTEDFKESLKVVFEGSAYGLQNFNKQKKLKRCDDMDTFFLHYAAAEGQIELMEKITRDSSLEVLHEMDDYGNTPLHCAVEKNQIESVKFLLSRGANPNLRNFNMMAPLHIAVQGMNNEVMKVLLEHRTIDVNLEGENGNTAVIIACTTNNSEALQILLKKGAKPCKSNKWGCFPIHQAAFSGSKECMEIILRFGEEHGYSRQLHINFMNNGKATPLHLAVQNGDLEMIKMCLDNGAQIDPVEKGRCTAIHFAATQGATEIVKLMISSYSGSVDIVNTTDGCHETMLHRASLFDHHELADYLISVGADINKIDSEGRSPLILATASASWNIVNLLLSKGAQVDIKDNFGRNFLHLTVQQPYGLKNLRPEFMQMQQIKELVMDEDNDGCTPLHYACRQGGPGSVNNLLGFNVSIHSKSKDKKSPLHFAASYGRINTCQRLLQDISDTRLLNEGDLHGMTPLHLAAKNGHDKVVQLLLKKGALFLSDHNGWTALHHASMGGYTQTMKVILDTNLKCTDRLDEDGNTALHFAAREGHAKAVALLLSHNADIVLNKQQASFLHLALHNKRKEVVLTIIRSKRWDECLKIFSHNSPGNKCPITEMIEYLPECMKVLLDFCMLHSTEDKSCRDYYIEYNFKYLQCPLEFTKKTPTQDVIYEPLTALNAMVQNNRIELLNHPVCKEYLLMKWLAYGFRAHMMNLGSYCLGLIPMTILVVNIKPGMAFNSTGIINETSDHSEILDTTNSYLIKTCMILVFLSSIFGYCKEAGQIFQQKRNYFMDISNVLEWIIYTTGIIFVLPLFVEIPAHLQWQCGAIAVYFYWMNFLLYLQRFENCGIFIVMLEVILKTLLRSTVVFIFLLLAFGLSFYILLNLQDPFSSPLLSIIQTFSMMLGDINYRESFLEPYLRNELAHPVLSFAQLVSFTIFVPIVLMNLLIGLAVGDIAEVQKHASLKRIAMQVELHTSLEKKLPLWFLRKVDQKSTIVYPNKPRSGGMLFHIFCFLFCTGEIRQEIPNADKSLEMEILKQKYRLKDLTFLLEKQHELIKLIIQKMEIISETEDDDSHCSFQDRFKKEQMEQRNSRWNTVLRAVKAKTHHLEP

Broadly, the EC50 is the midpoint of the concentration-response curve. `COc1ccc(OC)c(NC(=O)c2nnn(Cc3ccc(Br)cc3F)c2N)c1`: the 50% effective concentration (EC50) in experiment [1] amounted to 45 nM.
Regarding `C[n+]1cc2c3c(ccc2c2ccc4cc5c(cc4c21)OCO5)OCO3`, the EC50 in experiment [2] turned out to be 40 nM.
For `C[C@@H](N)[C@@H](O)CCCCCCCCCCCCCCCCCCCCCCCC[C@H](O)[C@@H](C)N`, the concentration for a half-maximal effect (EC50) in experiment [3] was determined as 2600 nM.
By IC50 is commonly meant the midpoint of a concentration-inhibition curve. As to `C[C@H]1[C@H](F)C[C@@H](C(=O)NCc2cc(-c3cnc(C(F)(F)F)nc3)ncc2C(F)(F)F)N1S(=O)(=O)c1ccc(F)cc1`, the IC50 in [4] is 1.7 nM.
As to `CCN(c1cccc(C)c1)S(=O)(=O)c1nnc(NC(=O)c2ccccc2)s1`, the IC50 in experiment [5] worked out at 130 nM.
`C[C@@H]1C(=O)N(C[C@@H](Cc2ccccc2)N(Cc2ccccc2)Cc2ccccc2)[C@]1(Cc1ccccc1)C(=O)OCc1ccccc1`: the IC50 in [6] and in experiment [7] was 300 nM in each case.
For `C[C@H]1C(=O)N(C[C@@H](Cc2ccccc2)N(Cc2ccccc2)Cc2ccccc2)[C@@]1(Cc1ccccc1)C(=O)OCc1ccccc1`, the IC50 in experiment [6] amounted to 20 nM; in experiment [8], 50 nM; in experiment [7], 20 nM.
`C[C@H]1C(=O)N(C[C@H](Cc2ccccc2)N(Cc2ccccc2)Cc2ccccc2)[C@@]1(Cc1ccccc1)C(=O)OCc1ccccc1`: the IC50 in experiment [7] was determined as 700 nM.
Consider `O=C(N[C@H](Cn1nccn1)C(F)(F)CO)c1cccc(F)c1-c1cc(-c2ccc(F)cc2)[nH]n1`, for which the figures for the IC50 in [9] and in experiment [10] were 25.3 nM and 22.4 nM, respectively.
The molecule `C[C@@H]1C(=O)N(C[C@H](Cc2ccccc2)N(Cc2ccccc2)Cc2ccccc2)[C@]1(Cc1ccccc1)C(=O)OCc1ccccc1` displayed an IC50 in experiment [7] of 3100 nM.
In turn, `O=C1NC(c2cccc([N+](=O)[O-])c2)=CCN1c1ccccc1O` [ICILLIN] returned an EC50 in experiment [11] of 5 nM.
Take `c1cc2c(cc1[C@H]1OC[C@H]3[C@@H]1CO[C@@H]3c1ccc3c(c1)OCO3)OCO2` [SESAMIN]: inhibition in experiment [12] was half-maximal at 9780 nM (IC50).
